We go through 6 compounds from PMC10659432 (bioRxiv, 2023).

The target in assay [1] is T1, 5-HT1FR (Homo sapiens, UniProt P30939). Briefly: BRET Gi1 activation assay in transfected HEK293T cells, agonism. The class given is cell-based.
In assay [2] the target is T1, 5-HT1FR. Briefly: G protein BRET assay in transfected HEK293T cells, agonism. The class given is cell-based.
The target in assay [3] is T2, 5-HT1eR (Homo sapiens, UniProt P28566). The assay can be described thus: cryoEM structure at […] Å.
Target sequence in this assay (P28566 whole entry): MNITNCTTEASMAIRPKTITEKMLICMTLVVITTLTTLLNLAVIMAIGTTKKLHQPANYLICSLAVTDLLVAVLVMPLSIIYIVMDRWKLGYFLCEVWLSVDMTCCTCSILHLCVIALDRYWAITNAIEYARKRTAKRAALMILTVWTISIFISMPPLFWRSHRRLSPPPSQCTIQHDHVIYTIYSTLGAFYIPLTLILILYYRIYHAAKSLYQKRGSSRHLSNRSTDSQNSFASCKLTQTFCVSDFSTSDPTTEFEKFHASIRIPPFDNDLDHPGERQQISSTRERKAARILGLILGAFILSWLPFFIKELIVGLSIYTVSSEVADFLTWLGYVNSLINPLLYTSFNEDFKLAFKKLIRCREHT
The target of assay [4] is T2, 5-HT1eR. The assay can be described thus: cryoEM structure at […] Å. The class given is cell-based.
Target sequence in this assay (P28566 whole entry): as above
The target of assay [5] is T1, 5-HT1FR. Briefly: G protein BRET assay in transfected HEK293T cells, full agonism. It counts as cell-based.
In assay [6] the target is T2, 5-HT1eR. The assay can be described thus: BRET Gi1 activation assay in transfected HEK293T cells, agonism. It counts as cell-based.
Target sequence in this assay (P63096 2-354): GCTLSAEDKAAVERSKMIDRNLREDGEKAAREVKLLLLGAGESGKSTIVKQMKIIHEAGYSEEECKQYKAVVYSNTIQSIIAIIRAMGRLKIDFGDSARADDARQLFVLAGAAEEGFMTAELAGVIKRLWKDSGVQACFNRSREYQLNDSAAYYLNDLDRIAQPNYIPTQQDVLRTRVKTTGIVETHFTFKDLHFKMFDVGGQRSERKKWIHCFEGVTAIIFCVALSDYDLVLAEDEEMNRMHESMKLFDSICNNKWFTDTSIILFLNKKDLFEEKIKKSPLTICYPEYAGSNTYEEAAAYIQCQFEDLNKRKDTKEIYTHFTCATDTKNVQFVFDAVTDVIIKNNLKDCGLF
Target sequence in this assay (P62873 2-340, further chain): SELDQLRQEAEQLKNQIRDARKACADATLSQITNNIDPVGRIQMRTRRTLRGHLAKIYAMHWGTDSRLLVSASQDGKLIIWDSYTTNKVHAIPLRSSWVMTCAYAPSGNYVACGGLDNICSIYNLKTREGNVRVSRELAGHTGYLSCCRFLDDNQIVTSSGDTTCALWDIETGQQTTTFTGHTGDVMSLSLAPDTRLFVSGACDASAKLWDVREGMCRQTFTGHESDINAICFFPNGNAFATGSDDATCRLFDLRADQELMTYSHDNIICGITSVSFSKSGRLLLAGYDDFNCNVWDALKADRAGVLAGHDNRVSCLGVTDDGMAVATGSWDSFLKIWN
Target sequence in this assay (P59768 2-68, further chain): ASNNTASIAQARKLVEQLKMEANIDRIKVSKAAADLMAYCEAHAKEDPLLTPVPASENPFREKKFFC
Target sequence in this assay (P28566 whole entry): as the sequence (P28566 whole entry) above

T1 sequence (P62873 2-340): as the sequence (P62873 2-340, further chain) above
T1 sequence (P30939 whole entry): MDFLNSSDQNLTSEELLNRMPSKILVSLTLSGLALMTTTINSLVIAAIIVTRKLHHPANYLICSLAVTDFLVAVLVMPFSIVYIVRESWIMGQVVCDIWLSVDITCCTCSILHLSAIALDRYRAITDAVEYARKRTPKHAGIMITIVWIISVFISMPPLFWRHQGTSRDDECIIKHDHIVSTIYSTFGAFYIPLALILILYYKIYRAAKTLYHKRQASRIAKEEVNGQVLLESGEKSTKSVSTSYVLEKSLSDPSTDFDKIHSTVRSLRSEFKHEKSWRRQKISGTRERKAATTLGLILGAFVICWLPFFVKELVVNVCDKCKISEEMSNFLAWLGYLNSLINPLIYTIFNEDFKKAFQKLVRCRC
T1 sequence (P63096 2-354, further chain): as the sequence (P63096 2-354) above
T1 sequence (P59768 2-68, further chain): as the sequence (P59768 2-68, further chain) above

Compound `Cc1cc(C(C)(C)C)c(O)c(C)c1CC1=NCCN1` [oxymetazoline] had a concentration giving a half-maximal response (EC50) at 5-HT1FR [1] of 11.3 nM.

As for `CN1CCN2c3ncccc3Cc3ccccc3C2C1` (stereo not shown) [mirtazapine], the EC50 on 5-HT1FR [2] was determined as 236 nM.

With `CN1CCN2c3ccccc3Cc3ccccc3C2C1` (stereo not shown) [mianserin], the EC50 is 47.5 nM on 5-HT1FR [1] and 123 nM on 5-HT1eR [3].

Regarding `CN1CCC2=C(C1)c1ccccc1Cc1ccccc12` [setiptiline], the concentration for a half-maximal effect (EC50) stood at 171 nM at 5-HT1eR [4] and 64.6 nM at 5-HT1FR [5].

`CC[C@@H](CO)NC(=O)[C@@H]1C=C2c3cccc4[nH]cc(c34)C[C@H]2N(C)C1` [methylergonovine]: the EC50 was found to be 5.2 nM on 5-HT1FR [1] and 17 nM on 5-HT1eR [6].

As to `CN1CCC(=C2c3ccccc3Sc3ccccc32)CC1` [pimethixene], the EC50 on 5-HT1FR [1] was 456 nM; on 5-HT1eR [6] it was 353 nM.
